In patent EP0513703A2, “Carbamate esters of eseroline having anticholinesterase activity, a process for their preparation and relative pharmaceutical compositions containing them as the active principle” (priority 1991, dated 1992):

Assays:
mice (Swiss strain) [1] = test: Acute toxicity, LD50 by oral route in mice (class D derivatives); assay type: in vivo; details: mouse, suspension in 2 % carboxymethylcellulose, observation 7 days
Description: The letal doses 50 (LD50) by oral route (suspension in 2 % carboxymethylcellulose) are reported hereinbelow: TABLE 6

[2] = tested on: acetylcholinesterase (AchE); assay type: in vivo, Wistar male rats; details: rat, oral, 1-2 mg/kg
mouse [3] = test: Spontaneous motility, Dews method modified according to Carminati (class D derivatives); assay type: in vivo; details: mouse (Swiss)
Description: (§1) The Dews method was used, modified according to Carminati (Arch. int. Pharmacodyn. et Thér 181, 68,1969).

[4] = target: T1, AChE (acetylcholinesterase) on the mouse brain (Mus musculus, UniProt P21836); test: Inhibition of AChE on the mouse brain after single doses (class F derivatives); assay type: in vivo; details: single doses (0.4-7 mg/kg)
T1 construct: from tissue; host or cells: mouse brain
T1 sequence (P21836 32-614): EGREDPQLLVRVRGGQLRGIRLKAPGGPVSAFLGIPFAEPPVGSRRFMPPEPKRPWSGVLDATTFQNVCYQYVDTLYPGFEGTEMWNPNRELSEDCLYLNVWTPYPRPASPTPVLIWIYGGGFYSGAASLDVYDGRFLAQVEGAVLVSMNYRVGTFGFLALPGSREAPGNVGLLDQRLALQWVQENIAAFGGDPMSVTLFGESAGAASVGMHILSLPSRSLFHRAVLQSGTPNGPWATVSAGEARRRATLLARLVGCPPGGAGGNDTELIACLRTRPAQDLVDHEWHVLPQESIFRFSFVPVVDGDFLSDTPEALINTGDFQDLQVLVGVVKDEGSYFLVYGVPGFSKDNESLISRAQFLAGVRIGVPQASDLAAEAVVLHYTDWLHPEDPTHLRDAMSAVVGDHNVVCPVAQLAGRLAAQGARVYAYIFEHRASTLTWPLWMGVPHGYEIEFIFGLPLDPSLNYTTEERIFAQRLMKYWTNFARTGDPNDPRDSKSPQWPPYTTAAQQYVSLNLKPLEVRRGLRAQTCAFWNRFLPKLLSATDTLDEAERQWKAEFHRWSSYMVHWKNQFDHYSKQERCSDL

motor activity = test: Antagonistic effect on the stimulating effect of scopolamine (class F derivatives); assay type: in vivo; details: scopolamine 1 mg/kg; oral administration
Description: At the dose of 1 mg/kg the scopolamine produce a clear stimulating effect (100 % of motor activity increase). This is countered by the oral administration of 2.5 mg of the three products MGR001, MGR002 and MGR003.

[5] = Pharmacokinetics after oral and intramuscular administration (class F derivatives); assay type: in vivo; details: rats; for maximum peak / time of the maximum peak after the oral administration: oral administration 7 mg/kg
Description: The kinetics of MGR001, MGR002, and MGR003 is determined in rats after oral administration and intramuscular of respectively 7 and 3.5 mg/kg. The maximum peak of 30 µg/ml is found 1 hour after the oral administration.

[6] = tested on: mice (Swiss strain of both sexes); test: Acute toxicity, LD50 by oral administration in mice (class F derivatives); details: mice, oral administration
mice (Swiss strain) [7] = test: Acute toxicity, LD50 by oral route in mice (class A derivatives); assay type: in vivo; details: mouse, suspension in 2 % carboxymethylcellulose, observation 7 days
Description: The letal doses 50 (LD50) by oral route (suspension in 2 % carboxymethylcellulose) are reported herinbelow: TABLE 1

[8] = tested on: acetylcholinesterase (AchE); assay type: in vivo, Wistar male rats; details: rat, oral, 1.5 to 4.5 mg/kg
mouse [9] = test: Spontaneous motility, Dews method modified according to Carminati (class A derivatives); assay type: in vivo; details: mouse (Swiss), oral, starting from minimum doses of 4-6 mg/kg
Description: as §1

rabbit [10] = test: Effect on the duration of the curarization by succinylcholine (class A derivatives); assay type: in vivo; details: anesthetized rabbit, 0.8 mg/kg intravenous
Description: . […] By using the same method (male rabbits of the tawny strain of Bourgogne; […]

rabbit [11] = test: Effect on the duration of the curarization by succinylcholine (class D derivatives); assay type: in vivo; details: anesthetized rabbit, 0.5 mg intravenous

| Structure (SMILES) | LD50 per os (mice (Swiss strain) [1]) [mg/kg] | inhibitory acetylcholinesterase activity (in words) [2] | oral dose causing a significant decrease of the spontaneous motility (mouse [3]) [mg/kg] | inhibition of AChE (acetylcholinesterase) on the mouse brain (in words) [4] | oral dose countering the stimulating effect of scopolamine (motor activity) [mg] | liver kinetics / excretion [5] | maximum peak [5] [µg/mL] | time of the maximum peak after the oral administration [5] [h] | LD50 [6] [mg/kg] | also measured |
| --- | --- | --- | --- | --- | --- | --- | --- | --- | --- | --- |
| CN1CC[C@@]2(C)c3cc(OC(=O)NCCCCCCCN)ccc3N(C)[C@@H]12 [MGF005, (3a S-cis) - 1,2,3,3a,8,8a hexahydro - 1,3a,8 - trimethyl pyrrol [2,3,b]-indol-5-ol-amino heptyl carbamate ester] | 428.42 ± 56.21 | clear inhibitory dose-dependent and reversible | 2.5 to 5 |  |  |  |  |  |  |  |
| CN1CC[C@@]2(C)c3cc(OC(=O)NCCOP(=O)(O)OCC(O)CO)ccc3N(C)[C@@H]12 (stereo partly drawn) [MGR002, (3aS-cis) 1,2,3,3a,8,8a-hexahydro-1,3a,8 trimethyl-pyrrol-[2,3-b]-indol-5-ol-glycerylphosphoryl-ethyl carbamate ester] |  |  |  | dose-dependence and reversible inhibition | 2.5 | pass through into the urine unchanged | 30 | 1 | 485 |  |
| CCCCCCCOC(=O)[C@@H](NC(=O)Oc1ccc2c(c1)[C@]1(C)CCN(C)[C@@H]1N2C)[C@@H](C)CC [MGS102, (3aS-cis) 1,2,3,3a,8,8a hexahydro-1,3a, 8-trimethyl-pyrrol (2,3-b) indol-5-ol-L-(3-methyl-2 carboxy-n-heptyl)-butyl-carbamate] |  |  |  |  |  |  |  |  |  | LD50 per os (mice (Swiss strain) [7]): 358.3 ± 18.83 mg/kg; inhibitory cerebral and serumal acetylcholinesterase activity (in words) [8]: clear inhibitory dose-dependent and reversible; decrease of the spontaneous motility (on average) (mouse [9]): ~-30%; effect on the curarization by succinylcholine compared with physostigmine (rabbit [10]): induced the same anticholinesterase effect of physostigmine |
| CNCCCCCNC(=O)Oc1ccc2c(c1)[C@]1(C)CCN(C)[C@@H]1N2C [MGF002, (3a S-cis) - 1,2,3,3a,8,8a hexahydro - 1,3a,8 - trimethyl pyrrol [2,3,b]-indol-5-ol-N-methyl-aminopentyl carbamate ester] | 436.72 ± 23.45 | clear inhibitory dose-dependent and reversible | 2.5 to 5 |  |  |  |  |  |  | curare effect of succinylcholine compared with physostigmine (rabbit [11]): prolonged in the same way as physostigmine the curare effect of succinylcholine |
| CC(=O)OCC(COP(=O)(O)OC[C@H](NC(=O)Oc1ccc2c(c1)[C@]1(C)CCN(C)[C@@H]1N2C)C(=O)O)OC(C)=O (stereo partly drawn) [MGR003, (3aS-cis) 1,2,3,3a,8,8a-hexahydro - 1,3a,8 trimethyl-pyrrol-[2,3-b]-indol-5-ol-diacetyl-glycerylphosphoryl-2L -carboxylethyl carbamate ester] |  |  |  | dose-dependence and reversible inhibition | 2.5 |  | 30 | 1 | 350 |  |
| CC(=O)OCC(COP(=O)(O)OCCNC(=O)Oc1ccc2c(c1)[C@]1(C)CCN(C)[C@@H]1N2C)OC(C)=O (stereo partly drawn) [MGR001, (3aS-cis) 1,2,3,3a,8,8a-hexahydro-1,3a,8 trimethyl-pyrrol-[2,3-b]-indol-5-ol-diacetylglycerylphosphoryl-ethyl carbamate ester] |  |  |  | dose-dependence and reversible inhibition | 2.5 | pass through into the urine unchanged | 30 | 1 | 500 |  |
